Results published in patent publication US7183299B2 (priority 2001, dated 2007).

Assays:
[1] = system: downy mildew (Plasmopara viticola) on grape; conditions: in vivo
late blight on tomato = assay type: in vivo, Plasmopara viticola; conditions: tomato (Hofuku), therapeutic effect, sprayed after inoculation, active ingredient 100 ppm, disease severity 7 days after inoculation

Structure (SMILES)	Control value (%) [1]	Control value (%) (late blight on tomato)
Cn1nnnc1C(=NOCc1cccc(NC(=O)OC2CCCCC2)n1)c1ccccc1 [(3)-23]	80%	100%
CC(C)C(=O)Nc1cccc(CON=C(c2ccccc2)c2nnnn2C)n1 [(1)-7]	100%	100%
CCCCOC(=O)Nc1cccc(CON=C(c2ccc(Cl)cc2)n2nnnc2C)n1 [(19)-14]	80%	100%
Cn1nnnc1C(=NOCc1cccc(NC(=O)Cc2ccccc2)n1)c1ccccc1 [(5)-12]	100%	100%
CCC(=O)Nc1cccc(CON=C(c2ccccc2)n2nnnc2C)n1 [(11)-5]	70%	80%
CCCC(=O)Nc1cccc(CON=C(c2ccccc2)c2nnnn2C)n1 [(1)-6]	70%	90%
CCCCC(=O)Nc1cccc(CON=C(c2ccccc2)c2nnnn2C)n1 [(1)-8]	70%	90%
CCCCCC(=O)Nc1cccc(CON=C(c2cccc(C)c2)c2nnnn2C)n1 [(9)-7]	100%	100%
CSCCC(=O)Nc1nc(CON=C(c2ccccc2)c2nnnn2C)cs1 [(6)-6]	70%	80%
CC(C)C(=O)Nc1nc(CON=C(c2ccccc2)c2nnnn2C)cs1 [(2)-7]	90%	100%
COc1ccc(C(=NOCc2cccc(NC(=O)C3CC3)n2)c2nnnn2C)cc1 [(7)-11]	70%	80%
CCC(C)(C)OC(=O)Nc1cccc(CON=C(c2ccccc2)c2nnnn2C)n1 [(3)-21]	70%	100%
CCCCCCOC(=O)Nc1cccc(CON=C(c2ccccc2)c2nnnn2C)n1 [(3)-15]	100%	100%
Cc1ccc(C(=NOCc2cccc(NC(=O)OC(C)(C)C)n2)c2nnnn2C)cc1 [(9)-4]	100%	100%
Cn1nnnc1C(=NOCc1csc(NC(=O)C(C)(C)C)n1)c1ccccc1 [(2)-11]	100%	100%
CCCCCCCOC(=O)Nc1cccc(CON=C(c2ccccc2)c2nnnn2C)n1 [(3)-16]	100%	100%

Structure (SMILES)	Control value (%) [1]	Control value (%) (late blight on tomato)
Cn1nnnc1C(=NOCc1cccc(NC(=O)CC(C)(C)C)n1)c1ccccc1 [(1)-16]	70%	100%
CCCCOC(=O)Nc1cccc(CON=C(c2ccccc2C)c2nnnn2C)n1 [(9)-11]	100%	100%
Cn1nnnc1C(=NOCc1cccc(NC(=O)OC(C)(C)C)n1)c1cccc(F)c1 [(9)-1]	100%	100%
CCCC(=O)Nc1cccc(CON=C(c2ccccc2)n2nnnc2C)n1 [(11)-6]	70%	80%
C=C(C)C(=O)Nc1nc(CON=C(c2ccccc2)c2nnnn2C)cs1 [(6)-7]	100%	100%
Cn1nnnc1C(=NOCc1cccc(NC(=O)OC(C)(C)C)n1)c1ccc(F)cc1 [(9)-3]	70%	90%
CCOC(=O)Nc1cccc(CON=C(c2ccccc2)c2nnnn2C)n1 [(3)-2]	70%	90%
Cc1nnnn1C(=NOCc1csc(NC(=O)C(C)C)n1)c1ccccc1 [(12)-7]	90%	100%
CCCCCCC(=O)Nc1nc(CON=C(c2ccccc2)n2nnnc2C)cs1 [(12)-18]	90%	100%
CCCCOC(=O)Nc1cccc(CON=C(c2ccc(C(F)(F)F)cc2)n2nnnc2C)n1 [(19)-31]	90%	100%
CCCOCCC(=O)Nc1nc(CON=C(c2ccccc2)c2nnnn2C)cs1 [(6)-15]	70%	90%
CCCCCC(=O)Nc1nc(CON=C(c2ccccc2)n2nnnc2C)cs1 [(12)-12, (Z)-(5-methyltetrazol-1-yl)phenylmethanoneoxime 0-(2-(n-hexanoylamino)thiazol-4-yl)methyloxime]	90%	100%
CC(C)OC(=O)Nc1cccc(CON=C(c2ccc(F)cc2)c2nnnn2C)n1 [(9)-2]	70%	80%
CCCCOC(=O)Nc1cccc(CON=C(c2ccccc2)c2nnnn2C)n1 [(3)-5]	100%	100%
CCCCC(=O)Nc1cccc(CON=C(c2ccccc2)n2nnnc2C)n1 [(11)-8]	100%	100%
Cc1nnnn1C(=NOCc1csc(NC(=O)OC(C)(C)C)n1)c1cccc(F)c1 [(20)-1]	70%	80%
